Results: patent EP0099122A2, “Compositions comprising pepstatin and an histamine H2-receptor antagonist having an enhanced antiulcer activity” (Bristol-Myers Company, priority 1982, dated 1984)
Like-named read-outs stand apart in the source and are kept apart here.

How the values were obtained:
Heidenhain Pouch Dog = experiment: Gastric antisecretory activity in the Heidenhain Pouch Dog; format: in vivo, dogs; conditions: 95% confidence limits in parentheses; for ED50: Canis lupus familiaris
Protocol: Determination of Gastric Antisecretory […] in the Heidenhain Pouch Dog Prior to surgery, hematology and blood chemistry profiles are obtained and an assessment made as to the general health of selected female dogs. Dogs are vaccinated with Tissue […]-Moore) and housed in general animal quarters for four weeks' observation so incipient diseases may become apparent. Dogs are fasted with water ad libitum 24 hours prior to surgery. […] Subsequent anesthesia is maintained with methoxy- flurane (Pitman-Moore). A mid-line linea alba incision from xiphoid to umbilicus provides good exposure and ease of closure. The stomach is pulled up into the operative fields the greater curvature stretched out at multiple points and clamps placed along the selected line of incision. The pouch is made from the corpus of the stomach so that true parietal cell juice is obtained. About 30% of the corpus volume is resected. The cannula is made of light-weight, biologically-inert material such as nylon or Delrin with dimensions and attachments after DeVito and […] fJ. Appl. Physiol., 14, 138 (1959)]. Post operatively, dogs are medicated with antibiotics and an analgesic. They are allowed 2-3 months for recovery. Experiments are carried out in the following way: […] The dogs are placed in a sling and a saphenous vein cannulated for drug administration. Histamine as the base (100 μg/kg/hr) and chlorpheniramine maleate (0.25 mg/kg/hr) are infused continuously (in a volume of 6 mL/hr) with a Harvard infusion pump. Ninety minutes' infusion are allowed for the dogs to reach a steady state of acid output. At this time the drug or normal saline (control) is administered concomitantly with the secretagogue in a volume of 0.5 mL/kg over a 30 second period. When oral studies are to be carried out, the drug is administered via gastric gavage in a volume of 5 mL/kg. Infusion of the secretagogue is continued and 15 minute samples of the gastric juice are taken for 4.5 hours. Each sample is measured to the nearest 0.5 mL and titratable acidity is determined by titrating a 1 mL sample to pH 7.0 with 0.2N NaOH, using an Autoburet and an electrometric pH meter '(Radiometer). Titratable acid output is calculated in microequivalents by multiplying the volume in milliliters by the acid concentration in milliequivalents per liter. Results are expressed as percent inhibition relative to control readings. Dose response curves are constructed and ED50 values are calculated by regression analyses. From 3 to 5 dogs are used at each dose level and a minimum of three dosage levels are utilized for determination of a dose response curve.

Gastric Fistula Rat = experiment: Gastric antisecretory activity in the Gastric Fistula Rat; format: in vivo, Long Evans rats; conditions: sc; for ED50: Rattus norvegicus, read-out: ED50 sc
Protocol: Determination of Gastric Antisecretory Activity in the Gastric Fistula Rat
Male Long Evans rats weighing about 240-260 grams at the time of cannula implantation are used. […] The fistula components are designed and the operative procedure is carried out exactly as described in the above reference. Post operatively the animals are individually housed in solid bottom cages with sawdust and are allowed food and water ad libitum throughout the entire recovery period. Animals are not used for test purposes for at least 15 days after the operative procedure.
The animals are fasted but allowed water ad libitum for 20 hours before the testing procedure is to begin. Immediately prior to collection, the cannula is opened and the. stomach washed gently with 30-40 mL of warm saline or distilled water to remove any residual contents. The catheter is then screwed into the cannula in place of the plugging screw and the rat is placed in a clear plastic rectangular cage measuring 40 cm long, 15 cm wide and 13 cm high. The bottom of the cage has a slit approximately 1.5 cm wide and 25 cm long running down the center to accommodate the catheter which hangs through it. In this way the rat is not restricted and can move -freely about the cage during collection periods. The remainder of the assay is carried out as described by Ridley et al. [Research Comm. Chem. Path.
Gastric secretions collected during the first hour after washing the stomach are discarded as they may be contaminated. For oral evaluation, the catheter is then removed from the cannula and replaced with the plugging screw. Water (2 mL/kg) is administered orally via gastric intubation and the animal is returned to the cage for 45 minutes. After this time the plugging screw is removed and replaced with a catheter to which a small plastic vial has been attached to collect the gastric secretions. A two hour sample is collected (this represents the control secretion), the catheter removed and.replaced with the plugging screw. The test drug is now administered orally in a volume of 2 mL/kg via gastric intubation. Forty-five minutes later the plugging screw is again removed, replaced with the catheter attached to a small plastic vial and another 2 hour sample is collected. The secretions in the second sample are compared to those of the control sample in order to determine thee effects of the test drug.
When test compounds are to be evaluated parenterally, the animal is injected ip or sc with the test compound vehicle in a volume of 2 mL/kg immediately after discarding the initial 60 minute collection. A two hour sample is collected (control secretion) and the animals are injected either ip or sc with the test compound in a volume of 2 mL/kg. An additional two hour sample is collected and its secretions are compared to those of the control period to determing drug effects.
The samples are centrifuged in a graduated tube for volume determination. Titratable acidity is measured by titrating a one mL sample to pH 7.0 with 0.02N NaOH, using an Autoburet and an electrometric pH meter (Radiometer). Titratable acid output is calculated in microequivalents by multiplying the volume in milliliters by the acid concentration in milliequivalents per liter.
Results are expressed as percent inhibition relative to control readings. Dose response curves are constructed and ED50 values are calculated by regression analyses. At least three rats are used at each dosage level and a minimum of three dosage levels are utilized for determination of a dose response curve.

gastric acid secretion [1] = experiment: Inhibition of gastric acid secretion relative to cimetidine, various animal studies; format: in vivo; conditions: inhibitors of gastric acid secretion, oral route
Protocol: Based on this potency difference, the oral dosage of the compounds of Examples 1 and 9 would be about 1/20 to 1/25 that of cimetidine, thus reducing the expected incidence of side effects. The usual oral dosage of cimetidine is 300 mg, given four times a day, while the usual dosage of the compounds of Examples 1 and 9 is about 12-15 mg, given four times a day. It was an object of this invention to further reduce the necessary dosage of the compounds of Formula I by the concomitant administration of a peptic activity- inhibitory amount of pepstatin. As will be shown below, such concomitant administration provides about a three-fold increase in potency compared with the administration of an equal amount of the compound of Formula I alone, thus permitting a further three-fold reduction in the dosage of the compound of Formula I.

gastric acid secretion [2] = experiment: Inhibition of gastric acid secretion relative to cimetidine, oral route, dog; format: in vivo
Protocol: (§1) In the tests described below, gastric erosions produced in rats by the oral instillation of 1.0 mL of 0.75N HC1 were compared with those in rats which had been pretreated with the most preferred compound of Formula I (of Example 1) or with that compound and pepstatin. Comparison tests utilizing pretreatment with the newer commercial product, ranitidine, and with ranitidine and pepstatin, are also shown. Ranitidine is about 4 and 6 times as potent as cimetidine as an inhibitor of gastric acid secretion by the oral route in the rat and dog, respectively.

[3] = test system: HCl-Induced Formation of Gastric Lesions; experiment: HCl-induced gastric erosions in rats (modified method of Robert et al.); format: in vivo, Long Evans rats; conditions: compound alone versus compound plus pepstatin (20 mg/kg po)
Protocol: as §1
A modification of the method of Robert et al., [Gastroenterology, 77, 433-443 (1979)] was employed to produce gastric erosions. Adult male, Long Evans rats weighing 280-300 g (Blue Spruce Farms, Alton, New York) were used. The animals were individually caged and food and water were removed 24 and 18 hours, respectively, prior to testing. On the following day, the test compound was administered orally to the animals 30 minutes before 1.0 mL of 0.75N HC1 was instilled into the stomach by gavage. Animals treated with the combination of the test compound and pepstatin received the test compound 30 minutes before, and a fixed amount of pepstatin (20 mg/kg po) 10 minutes before, the hydrochloric acid was administered. […] One hour after receiving the HC1 solution, the animals were sacrificed with an intraperitoneal injection of 0.2 mL of T-61®, a euthanasia solution (National Laboratories Corp.).
The stomachs were removed from the animals, cut along the greater curvature, opened, rinsed with saline and pinned out flat in a standard position for macroscopic examination and scoring of erosions. The stomachs were photographed with a Polaroid® Close Up camera (Polaroid Corporation) and scoring was determined from the photographs. For scoring purposes, only those erosions with a minimum length of 1 mm were considered. The severity of gastric ulceration was defined for each animal as the sum of the maximum continuous lengths (in mm) of the erosions satisfying the above criteria. Percent inhibition of lesion formation was defined as
(mm erosion, vehicle control') - (mm erosion, test agent) 100. (mm erosion, vehicle control)
Data were analyzed using the t-test for unpaired data' and ED50 values were calculated from the dose response data using probit analysis [Finney, Probit Analysis, 3rd ed., University Press, Cambridge, England (1971)].
The compound of Example 1 and ranitidine (synthesized by the Medicinal Chemistry Research Department of Bristol Laboratories, Division of.Bristol-Myers Company) were dissolved in one equivalent of HC1 and the pH adjusted to 5.5 with NaOH. A suspension of pepstatin (Banyu Pharmaceutical Co. Ltd.) in water was made by homogenizing the compound with a few drops of Tween-80® (Atlas Chemical Industries). Each of these compounds were administered orally by gavage in a volume of 2 mL/kg.

gastric acid secretion [4] = experiment: Inhibition of gastric acid secretion relative to cimetidine, oral route, rat; format: in vivo
Protocol: as §1

[5] = 95% confidence limits in parentheses

Compound | ED50 (Gastric Fistula Rat; [5]) | Potency Ratio [cimetidine = 1.0] (Gastric Fistula Rat; [5]) | further results
CN/C(=N/CCSCc1nc[nH]c1C)NC#N [Cimetidine, cimetidine, reference compound] | – | – | ED50 (Heidenhain Pouch Dog; INTRAVENOUS): 2.18 µmol/kg; ED50 (Heidenhain Pouch Dog; ORAL): 3.29 µmol/kg; ED50 (Gastric Fistula Rat): 3.8 µmol/kg
CN(C)Cc1ccc(CSCCNc2c(N)c(=O)c2=O)o1 [Example 2, 1-Amino-2-{2-[(5-dimethylaminomethyl-2-furyl)methylthio]ethyl-amino}cyclobutene-3,4-dione] | < 1 µmol/kg | >4 | Potency Ratio [cimetidine = 1.0] (Heidenhain Pouch Dog; INTRAVENOUS): ~20
CN(C)Cc1ccc(CSCCNc2c(N)c(=O)c2=O)s1 [Example 3, 1-Amino-2-{2-[(5-dimethylaminomethyl-2-thienyl)methylthio]ethyl-amino}cyclobutene-3,4-dione] | ~4 µmol/kg | ~1 | –
CN(C)Cc1cccc(OCCCNc2c(N)c(=O)c2=O)c1 [Example 9, 1-Amino-2-[3-(3-dimethylaminomethylphenoxy)propylamino]cyclobutene-3,4-dione] | 0.055 µmol/kg | 61 (20-204) | Potency Ratio [cimetidine = 1.0] (Heidenhain Pouch Dog; INTRAVENOUS): ~40; Potency Ratio [cimetidine = 1.0] (Heidenhain Pouch Dog; ORAL): ~20; times more potent than cimetidine (gastric acid secretion [1]): 20-25
Nc1c(NCCCOc2cccc(CN3CCCCCC3)c2)c(=O)c1=O [Example 10i, 1-amino-2-[3-(3-hexamethyleneiminomethylphenoxy)propylamino]-cyclobutene-3,4-dione] | 0.08 µmol/kg | 48 (21-97) | Potency Ratio [cimetidine = 1.0] (Heidenhain Pouch Dog; INTRAVENOUS): >40
Nc1c(NCCCOc2cccc(CN3CCCCCCC3)c2)c(=O)c1=O [Example 10j, 1-amino-2-[3-(3-heptamethyleneiminomethylphenoxy)propylamino]-cyclobutene-3,4-dione] | 0.044 µmol/kg | 88 (36-211) | –
Nc1c(NCCCOc2cccc(CN3CCCCCCCC3)c2)c(=O)c1=O [Example 10m, 1-amino-2-[3-(3-octamethyleneiminomethylphenoxy)propylamino]-cyclobutene-3,4-dione] | 0.7 µmol/kg | 5.4 (2.1-12) | –
CNc1c(NCCCOc2cccc(CN3CCCCC3)c2)c(=O)c1=O [Example 11, 1-Methylamino-2-[3-(3-piperidinomethylphenoxy)propylamino]cyclobutene-3,4-dione] | 0.067 µmol/kg | 50 (15-169) | –
O=c1c(NCCCOc2cccc(CN3CCCCC3)c2)c(NCc2cccnc2)c1=O [Example 12, 2-[3-(3-Piperidinomethylphenoxy)propylamino]-l-(3-pyridyl)methyl-aminocyclobutene-3,4-dione] | 0.094 µmol/kg | 44 (22-90) | –
C#CCNc1c(NCCCOc2cccc(CN3CCCCC3)c2)c(=O)c1=O [Example 14d] | 0.031 µmol/kg | 124 (62-243) | –
CNC(=C[N+](=O)[O-])NCCSCc1ccc(CN(C)C)o1 [Ranitidine, ranitidine] | – | – | times as potent as cimetidine as an inhibitor of gastric acid secretion (gastric acid secretion [2]): ~6; Potency Ratio [3]: 1.18; times as potent as cimetidine as an inhibitor of gastric acid secretion (gastric acid secretion [4]): about 4
